Data reported in PMC10182956 (Archives of Toxicology, 2023).
Values joined by “and” are separate entries in the source; they are usually repeats but may differ in a detail not shown here. Identical values can stand only once. “Also recorded” adds a separate entry of the source. Like-named read-outs stand apart in the source and are kept apart here.

Tests used:
HepaRG cells [1] = experiment: Cell viability assessment (WST-1 assay); assay type: cell-based, human; conditions: Homo sapiens, 24 h exposure, reference chemicals, 95% CI in brackets, read-out: EC50 µM (95% CI) from cell viability (WST-1)
Description: Undifferentiated HepaRG cells were purchased from Biopredic international (Saint Grégoire, France). HepaRG cells have unlimited growth capacity and phenotypic stability, stable enzymatic activities over 4 weeks of cultivation, and similar metabolic function to primary human hepatocytes, and also avoid limitations of primary cells such as donor variability and phenotypic instability (Aninat et al. [2006]; Guillouzo et al. [2007]; Lambert et al. [2009]; Lübberstedt et al. [2011]; Andersson et al. [2012]). The line contains two cell types, hepatocyte-like and cholangiocyte-like cells (Parent et al. [2004]), which allows for elucidation of cell-specific toxicity (Jossé et al. [2008]). Cells were seeded at a density of approximately 27′000 cells/cm^2 into a 150 × 25 mm petri dish and were cultured for 2 weeks in William’s E medium (cat. nr.: 32,551,020, ThermoFisher Scientific, Massachusetts, USA) supplemented with 2 mM glutamine, 10% (v/v) fetal bovine serum (FBS) good forte (cat. nr.: P40-47,500, PAN-Biotech, Aidenbach, Germany), 100 U/ml penicillin and 100 µg/ml streptomycin (cat. nr.: 15,140,122, ThermoFisher Scientific, Massachusetts, USA), 5 µg/ml Gibco recombinant AOF insulin (cat. nr.: A11382II, ThermoFisher Scientific, Massachusetts, USA) and 50 µM hydrocortisone hemisuccinate (cat. nr.: H4881, Sigma-Aldrich, St. Louis, USA) at 37 °C and 5% CO2. Differentiation was induced by culturing the cells for another 2 weeks in the above mentioned medium supplemented with 1.7% DMSO. After 4 weeks in culture, differentiated HepaRG cells were seeded at a high density of approximately 227′000 cells/cm^2 (72,000 cells/well with 100 µl per well) into black 96-well plates with a clear bottom (cat.nr.: 3603, Corning, New York, USA) and maintained for 10 days. After 10 days, cells were first adapted to treatment medium (culture medium containing 0.5% DMSO and 2% FBS) for 48 h and then used for cell viability and high-content imaging analysis.
Cell viability was analyzed using the WST-1 assay which is based on the measurement of mitochondrial dehydrogenase activity (cat. nr: ab155902, Abcam, Cambridge, UK). HepaRG cells were exposed to chemicals at defined concentrations for 24 h. Triton X-100 (0.01%) was a positive control. One hour before the end of incubation period, 10 µl of WST-1 reagent was added to each well, quickly mixed by shaking the plate, and returned to the cell culture incubator (37 °C, 5% CO2). After 1 h, absorbance was measured (450 nm, reference wavelength 620 nm) using a plate reader (Infinite M200 Pro, Tecan group, Männerdorf, Switzerland). Absorbance was then subtracted from the reference wavelength, corrected for background by subtracting values measured without cells, and then normalized to the solvent control, which was set to 100%. Dose–response data were fitted using drc package (Version 3.0.1) (Ritz et al. [2015]) in R 3.6.1. Data were from at least 3 independent experiments with 6 technical replicates per condition.

HepaRG cells [2] = experiment: High-content imaging assay: lipid accumulation (Bodipy lipid droplets); assay type: cell-based; conditions: HepaRG 24 h; for Lipid accumulation response (in words): population level, threshold ± 2 standard deviations of the response at the two lowest concentrations; for EC (BMC, 1 SD from control): Homo sapiens, lipid accumulation, Supplementary table 3, read-out: LA: Benchmark concentration (µM) per imaging endpoint calculated with BMDS software
[3] = Published in vivo pharmacokinetics (Css, plasma concentration, clearance); conditions: human; for In vivo Css (µM): calculated with Css = (Dose*F)/(Cl*dosing interval) or k0/Cl from published pharmacokinetic parameters, ref Bowsher et al. 1994, Welling et al. 1977; for hepatocyte CLint: hepatocytes (back-calculated, no incubation), in vitro intrinsic hepatic clearance calculated from in vivo clearance with formula 3, read-out: Calculated Clint (ul/min/10^6 cells)
Description: For the model evaluation, Css of selected reference chemicals were predicted using formula 1 with the same dose rate from the in vivo Css measurements. […] The formula to calculate Clint was derived from the function calc_hepatic_clearance within the httk package. Predicted Css values were then compared to published in vivo Css values. If there was no published in vivo Css available, Css was then calculated based on published in vivo pharmacokinetic parameters using the following formula (Supplementary table 3)4 Css(mg/L)=(Dose×F)/(Cl×dosinginterval)
(§1) Supplementary table 3. Comparison of benchmark concentration and predicted Css with published pharmacokinetic values. Where indicated, in vivo derived Css values were calculated using following formula: Css = (Dose*F)/(Cl*dosing interval) or Css = k0/Cl with F = bioavailability, Cl = clearance, k0 = infusion rate and Css = steady state concentration.

HepaRG cells [4] = conditions: for Mitochondrial membrane potential response (in words): population level, threshold ± 2 standard deviations of the response at the two lowest concentrations
HepaRG cells [5] = conditions: for Oxidative stress response (in words): population level, threshold ± 2 standard deviations of the response at the two lowest concentrations
HepaRG cells [6] = conditions: HepaRG 24 h, population level; threshold ± 2 standard deviations of the response at the two lowest concentrations
Description: (§2) Cellular responses were quantified using a high-content imaging approach (Fig. 1). Based on cell viability assessment, concentrations below the EC50 level were tested in the high-content imaging assay. After 24 h chemical exposure, live cells were incubated with CellROX, which reflects hydroxyl radi [...

[7] = IVIVE derived median over all positive imaging endpoints; human simulation; Table 2
Description: In our study, a three-compartment steady state pharmacokinetic (PK) model was parameterized and used for the simulations. […] Human data were used except where otherwise stated. Steady-state concentration (Css) in the blood was calculated using formula 1 (Pearce et al. [2017])1 Cssmg/l=ko/(GFR×fup+Qliver+Qgut×fup×Clmetabolism/Qliver+Qgut+fup×Clmetabolism/Rblood2plasma) where ko = constant dose rate (mg/kg BW/day), fup = in vitro measured chemical fraction unbound in plasma, Clmetabolism = metabolic clearance scaled from in vitro intrinsic hepatic clearance, Rblood2plasma = ratio of blood concentration of a chemical to the plasma concentration, GFR = glomerular filtration rate (mean 5.17 ml/min/kg^3/4), Qliver = blood flow to the liver (mean 59.9 ml/min/kg^3/4), and Qgut = blood flow to the gut (mean 47.5 ml/min/kg^3/4). Fraction unbound, metabolic clearance, and Rblood2plasma values were obtained from the httk package or from literature. Recognizing that formula 1 is linear in dose rate (ko), oral equivalent doses (OED) were then calculated using the Css predicted for a 1 mg/kg/day dose rate as in formula 2 (Rotroff et al. [2010]).2 OEDmg/kg/day=BMCuM×1mg/kg/day/CssuM
The calculated OED corresponds to an oral daily dose which would lead to a plasma concentration equal to the in vitro-derived BMC. The OED is linearly related to the BMC and inversely related to Css. This equation is only valid for first-order metabolism (Rotroff et al. [2010]). A Monte Carlo analysis was used to simulate population variability in, GFR, Qliver, Qgut, and Clmetabolism across 1000 healthy individuals. Extrapolations were performed for each chemical and endpoint which was positive in the imaging assay. Every predicted parameter per chemical was then combined into one boxplot per endpoint, which contained all predicted OEDs across all positive endpoints.
Vice versa, predicted OED derived from BMC were compared to published exposure values of the corresponding chemicals. Simulations were performed in humans where pharmacokinetic parameters for humans were available; otherwise, estimations were calculated in rats or rabbits, as stated in Fig. 7.

HepaRG cells [8] = experiment: cells; conditions: Homo sapiens, 24 h, read-out: MMP: Benchmark concentration (µM) per imaging endpoint calculated with BMDS software
HepaRG cells [9] = experiment: cells; conditions: Homo sapiens, 24 h, read-out: NM: Benchmark concentration (µM) per imaging endpoint calculated with BMDS software
Description: as §2

[10] = human, cited from earlier work
[11] = set-up: method as in Literature column of Supplementary table 4; conditions: value added to httk database; ref Supplementary table 4; cited from earlier work
[12] = set-up: method as in earlier work; conditions: fraction unbound plasma; human; ref Aegerion Pharmaceuticals 2012; Bowsher et al. 1994; Scheen 1996; cited from earlier work
[13] = IVIVE reverse dosimetry: oral equivalent dose (OED) from BMC; conditions: IVIVE derived median over all positive imaging endpoints; rat simulation (R script); Table 2
Description: Human data were used except where otherwise stated. […]
mc_OED_WY14643_LD <- calc_mc_oral_equiv(40.98, chem.cas="50892-23-4", model = "3compartmentss",species="Rat", return.samples = T, samples=1000, httkpop = T) mc_OED_WY14643_MD <- calc_mc_oral_equiv(38.1, chem.cas="50892-23-4", model = "3compartmentss",species="Rat", return.samples = T, samples=1000, httkpop = T) mc_OED_WY14643_NM <- calc_mc_oral_equiv(386.28, chem.cas="50892-23-4", model = "3compartmentss",species="Rat", return.samples = T, samples=1000, httkpop = T)

[14] = Published in vivo pharmacokinetics (Css, clearance); conditions: rat; for In vivo Css (µM): calculated with Css = (Dose*F)/(Cl*dosing interval) or k0/Cl from published pharmacokinetic parameters, ref Cunningham 2007, Adedayo Adedoyin, Leon Arons 1993b
Description: For the model evaluation, Css of selected reference chemicals were predicted using formula 1 with the same dose rate from the in vivo Css measurements. For chemicals with no in vitro intrinsic hepatic clearance and fraction unbound values available in the database included in the httk package, in silico predictions from (Sipes et al. [2017]) were loaded using load_sipes2017(). […]. The formula to calculate Clint was derived from the function calc_hepatic_clearance within the httk package. Predicted Css values were then compared to published in vivo Css values. If there was no published in vivo Css available, Css was then calculated based on published in vivo pharmacokinetic parameters using the following formula (Supplementary table 3)4 Css(mg/L)=(Dose×F)/(Cl×dosinginterval)
as §1

[15] = set-up: method as in Adedayo Adedoyin, Leon Arons 1993a; conditions: rat; plasma clearance; ref Adedayo Adedoyin, Leon Arons 1993a; cited from earlier work
[16] = set-up: method as in Adedayo Adedoyin, Leon Arons 1993a; conditions: fraction unbound plasma; rat; ref Adedayo Adedoyin, Leon Arons 1993a; cited from earlier work
[17] = single cell analysis, highest concentration 250 µM
[18] = ref Bowsher et al. 1994, Scheen 1996

SMILES | EC50 (HepaRG cells [1]) | Lipid accumulation response (in words) (HepaRG cells [2]) | EC (BMC, 1 SD from control) (HepaRG cells [2]) | In vivo Css (µM) [3] | Concentration at which decrease of mitochondrial membrane potential exceeded the threshold (HepaRG cells [4]; HepaRG 24 h) | Number of apoptotic cells (nuclear morphology) response (in words) (HepaRG cells [6]) | OED [7] | EC (BMC, 1 SD from control) (HepaRG cells [8]) | EC (BMC) (HepaRG cells [9]) | hepatocyte CLint [3] | Mitochondrial membrane potential response (in words) (HepaRG cells [4]; HepaRG 24 h) | Oxidative stress response (in words) (HepaRG cells [5]; HepaRG 24 h) | LogP [11] | Fup [12] | In vivo Css (µM) [14] | also measured
CN(C)[C@@H]1C(O)=C(C(N)=O)C(=O)[C@@]2(O)C(O)=C3C(=O)c4c(O)cccc4[C@@](C)(O)[C@H]3C[C@@H]12 [tetracycline] | 238 µM | accumulated in a dose-dependent manner above the threshold | 32.9 µM | 9.7^3 µM | 250 µM | increased above the threshold | 30.2 mg/kg/day | 218 µM | 32.7 µM | – | – | – | – | – | – | Mitochondrial membrane potential in hepatocyte-like and cholangiocyte-like cells (in words) (HepaRG cells [4]; [17]): decrease of mitochondrial membrane potential was observed in both cell types; Concentration at which increase of oxidative stress exceeded the threshold (HepaRG cells [5]; HepaRG 24 h): 125 µM and 250 µM; OS: Benchmark concentration (µM) per imaging endpoint calculated with BMDS software (HepaRG cells [5]; oxidative stress, HepaRG 24 h, Supplementary table 3): 69.7 µM; Oxidative stress in hepatocyte-like and cholangiocyte-like cells (in words) (HepaRG cells [5]; [17]): oxidative stress levels were elevated in both cell types
O=c1[nH]c(=O)n([C@@H]2O[C@H](CO)[C@@H](O)[C@@H]2F)cc1I [fialuridine] | – | neither induced lipid accumulation; also recorded: did not give rise to lipid accumulation | – | 0.6^3 µM | – | – | 5.6 mg/kg/day | 6.3 µM | 45.1 µM | 0.173 µL/min/1e6 cells | increased MMP | neither induced lipid accumulation, had any consistent impact on oxidative stress | -0.9 | 0.375 | – | Concentration at which increase of MMP (hyperpolarization) was observed / exceeded the threshold (HepaRG cells [4]; HepaRG 24 h): 25 µM; In vivo clearance (L/h): Nonrenal clearance [10, 18]: 2.06 L/h; In vivo clearance (L/h): Renal clearance [10, 18]: 4.21 L/h; In vivo clearance (L/h): Total clearance [10, 18]: 6.27 L/h
Cc1cccc(Nc2cc(Cl)nc(SCC(=O)O)n2)c1C [WY14643] | – | dose-dependently increased and exceeded the threshold | 41 µM | – | – | induced apoptosis | – | 38.1 µM | 386 µM | – | MMP hyperpolarization | – | – | – | 2.5^3,5 µM | Lipid accumulation response (in words) (HepaRG cells [2]; listed as WY-14693): having the potential to induce lipid accumulation; OED [13]: 1.7 mg/kg/day
O=c1cc(-c2ccccc2)oc2ccc3ccccc3c12 [β-naphthoflavone] | – | did not give rise to lipid accumulation | – | – | – | none of the hallmarks were induced | – | – | – | – | none of the hallmarks were induced | none of the hallmarks were induced | 4.4 | – | 2.3^3 µM | Lipid accumulation response (in words) (HepaRG cells [2]; listed as BNF): not; hepatocyte CLint ([14]; hepatocytes (back-calculated, no incubation), in vitro intrinsic hepatic clearance calculated from in vivo clearance with formula 3, read-out: Calculated Clint (ul/min/10^6 cells)): 23.4 µL/min/1e6 cells; In vivo clearance (L/h) [15]: 1.3 (plasma clearance) L/h; Fup [16]: 0.04
O=C(NC1CCN(CCCCC2(C(=O)NCC(F)(F)F)c3ccccc3-c3ccccc32)CC1)c1ccccc1-c1ccc(C(F)(F)F)cc1 [lomitapide] | 13.5 µM | not and did not give rise to lipid accumulation | – | 0.0002^3 µM | 12 µM | increased above the threshold | 1333 mg/kg/day | 0.58 µM | 4 µM | 48.3 µL/min/1e6 cells | – | no changes were observed | 8.2 | 0.002 | – | In vivo clearance (L/h) ([10]; after 50 mg p.o., ref Aegerion Pharmaceuticals 2012): 573.4656 (after 50 mg p.o.) L/h
CN(C)C(=N)N=C(N)N [metformin] | – | accumulated in a dose-dependent manner above the threshold; also recorded: having the potential to induce lipid accumulation | 987 µM | – | 50,000 µM | increased above the threshold | 6778 mg/kg/day | – | 1940 µM | 4.01 µL/min/1e6 cells | – | – | – | 0.99 | – | Concentration at which lipid accumulation was induced (HepaRG cells [2]; increase): 25,000 µM and 50,000 µM; Concentration at which decrease of oxidative stress fell below the threshold (HepaRG cells [5]; HepaRG 24 h): 50,000 µM; In vivo Css ([10]; published, ref Birkett and Miners 1991, Graham et al. 2011, Freedman and Somberg 1991, Vasudev et al. 2001): 5.2 µM
